These are literature values, as cited in patent US20110305778A1, “Chemically Stabilized Anti-Dandruff Compositions For Use In Personal Care Compositions” (priority 2010, published 2011).

The conditions of the data set: value in parenthesis after each coordinating compound; no method given.
Turning to `O=C(O)CO` [Glycolic Acid], the “Log Zn Binding Constant” value was 2.0.

Consider `NCC(=O)O` [Glycine], for which the “Log Zn Binding Constant” value is given as 5.0.

As for `O=C(O)CC(O)(CC(=O)O)C(=O)O` [Citric Acid], the “Log Zn Binding Constant” value is given as 4.8.

As to `N[C@@H](CS)C(=O)O` [Cysteine], the “Log Zn Binding Constant” value is recorded as 9.1.

For the compound `CSCC[C@H](N)C(=O)O` [Methionine], the “Log Zn Binding Constant” value is 4.4.

`N[C@@H](CSSC[C@H](N)C(=O)O)C(=O)O` [Cystine]: the “Log Zn Binding Constant” value was 6.7.

Turning to `O=C(O)CNCCNCC(=O)O` [EDDA], the “Log Zn Binding Constant” value was 11.1.

Take `N=C(N)NCCC[C@H](N)C(=O)O` [Arginine]: the “Log Zn Binding Constant” value is reported as 4.2.

Turning to `Cc1cc(C2(c3cc(C)c(O)c(CN(CC(=O)O)CC(=O)O)c3)OS(=O)(=O)c3ccccc32)cc(CN(CC(=O)O)CC(=O)O)c1O` [Xylenol Orange], the “Log Zn Binding Constant” value is listed as 10.3.

For `O=C(O)CCC(=O)O` [Succinic Acid], the “Log Zn Binding Constant” value was 1.8.

On to `N[C@@H](CC(=O)O)C(=O)O` [Aspartic Acid], for which the “Log Zn Binding Constant” value is on record as 5.9.

In the case of `O=CO` [Formic Acid], the “Log Zn Binding Constant” value is reported as 0.6.

`N[C@@H](CCC(=O)O)C(=O)O` [Glutamic Acid]: the “Log Zn Binding Constant” value is recorded as 4.5.

As to `CC(O)C(=O)O` (stereo not shown) [Lactic Acid], the “Log Zn Binding Constant” value is listed as 1.9.

In the case of `CC(=O)O` [Acetic Acid], the “Log Zn Binding Constant” value was 1.0.

As for `Cl` [Chloride], the “Log Zn Binding Constant” value is reported as −0.3.

Regarding `O=C(O)CN(CCN(CC(=O)O)CC(=O)O)CC(=O)O` [EDTA], the “Log Zn Binding Constant” value is recorded as 16.5.

Take `O=C(O)CN(CC(=O)O)CC(=O)O` [NTA]: the “Log Zn Binding Constant” value was 10.7.

Regarding `OB(O)O` [Boric Acid], the “Log Zn Binding Constant” value is listed as 0.9.

In the case of `O=C(O)C(O)C(=O)O` [Tatronic Acid], the “Log Zn Binding Constant” value was 3.2.

As to `O=C(O)O` [Carbonic Acid], the “Log Zn Binding Constant” value is 3.9.

`O=C(O)C[C@H](NCCN[C@@H](CC(=O)O)C(=O)O)C(=O)O` [EDDS]: the “Log Zn Binding Constant” value is 13.5.

For `O=S(=O)(O)O` [Sulfuric Acid], the “Log Zn Binding Constant” value is 0.9.

As for `O=C(O)CC(O)C(=O)O` (stereo not shown) [Malic Acid], the “Log Zn Binding Constant” value is recorded as 2.9.

Turning to `O=P(O)(O)O` [Phosphoric Acid], the “Log Zn Binding Constant” value is given as 2.4.

In the case of `O=C(O)CCCCC(=O)O` [Adipic Acid], the “Log Zn Binding Constant” value is recorded as 2.6.

Turning to `O=C(O)c1ccccc1C(=O)O` [Phthalic Acid], the “Log Zn Binding Constant” value was 2.2.

Regarding `O=C(O)CC(=O)O` [Malonic Acid], the “Log Zn Binding Constant” value is listed as 2.9.
